In patent US4866052A, “Treatment of sickle cell disease” (National Research Development Corporation, priority 1986, dated 1989):
One block for each compound: values may come before it.

Tests used:
Normal erythrocytes = assay: Oxygen dissociation curve / oxygen affinity, normal erythrocytes; assay type: cell-based, human
Experimental: (§1) (1) A 50% suspension of human erythrocytes in pH 7.09 8BisTris/NaCl buffer005M BisTris(bis(2-hydroxyethyl)imino-tris(hydroxymethyl)methane and 0.13M NaCl was incubated for 15 minutes at 37° C. with the 2:1 zinc(II) complex of 2-ethyl-3-hydroxy-4-pyrone in the presence of an excess of the ligand-forming compound, the complex being formed in situ using zinc sulphate and a 10 molar excess of 2-ethyl-3-hydroxy-4-pyrone (to provide the 2:1 complex and an 8 molar excess of the pyrone). The oxygen dissociation curve of the erythrocytes was then determined using the method of Bellingham and Huehns (Nature, -968, 218, 924-926) which involves measuring the change of OD at two wavelengths (570 and 555 nm) after the sequential measured addition of oxygen in a tanometer. The experiment was conducted using normal erythrocytes, 2,3-diphosphoglyceric acid (DPG) depleted erythrocytes, foetal erythocytes and sickle erythrocytes. A 2.5 mM concentration of zinc was employed in each case together with a proportion of erythrocytes such as to provide a 2:1 ratio of zinc:haemoglobin and consequent saturation of the haemoglobin by zinc, except in one experiment where the proportion was varied to provide a ratio varying from 0.5:1 to 2:1. In each case a control was carried out in the absence of any zinc sulphate or 2-ethyl-3-hydroxy-4-pyrone and in one case two additional controls were carried out in the presence of one of these compounds used alone. The values for p(O2)50 (i.e. the oxygen pressure at which 50% of the haemoglobin is in the oxygenated form) obtained in each case are shown in Table 2 (together with the inferred Zn:Hb ratio) from which it will be seen that the oxygen affinity of normal erythrocytes, and also of sickle erythrocytes, is increased through treatment of the cells with zinc(II) (2-ethyl-3-hydroxy-4-pyrone)2. Foetal erythrocytes, which contain Hb-F and therefore show different characteristics from normal eythrocytes which contain Hb-A, were as expected not affected. […] With sickle erythrocytes the effect is even more marked as is further illustrated in (2) below.
(§2) (2) The effect of the 2:1 2-ethyl-3-hydroxy-4-pyrone:zinc(II) complex on normal and sickle erythrocytes was further compared using a basically similar procedure to that described in (-) above. Concentrations of 2.5 mM ZnSO4 and 25 mM pyrone, and a 2:1 Zn:Hb ratio were again used but the incubation period was extended to 1 hour. In each case a control experiment was carried out in the absence of any zinc sulphate or pyrone.
(3) The effect of different concentrations of the 2:1 2-ethyl-3-hydroxy-4-pyrone:zinc(II) complex upon normal erythrocytes was studied using a basically similar procedure to that described in (l) above but with ZnSO4 concentrations of 0.1, 1 and 10 mM (and ten times these concentrations of the pyrone) and extending the incubation period to 1 hour. A control experiment was carried out in the absence of any zinc sulphate or pyrone.

haemoglobin [1] = molecular target: T1, haemoglobin (Homo sapiens, UniProt P68871+P69905); assay: Uptake of 65Zn from 2:1 zinc(II) complexes by haemoglobin in human erythrocytes; assay type: cell-based; conditions: 2:1 zinc complex 5 x 10^-4M with excess ligand, 1 hour, 37° C., pH 7.4, human erythrocytes
T1 construct: A 5% suspension of human erythrocytes in aqueous sodium chloride; endogenous in cells; host or cells: human erythrocytes (intact, 5% suspension)
T1 sequence (P69905 2-142 limits assumed): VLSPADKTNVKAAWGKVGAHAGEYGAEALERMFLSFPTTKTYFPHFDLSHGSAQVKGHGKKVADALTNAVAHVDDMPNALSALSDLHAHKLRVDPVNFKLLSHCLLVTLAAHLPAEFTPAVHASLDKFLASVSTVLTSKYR
T1 sequence (P68871 2-147 limits assumed): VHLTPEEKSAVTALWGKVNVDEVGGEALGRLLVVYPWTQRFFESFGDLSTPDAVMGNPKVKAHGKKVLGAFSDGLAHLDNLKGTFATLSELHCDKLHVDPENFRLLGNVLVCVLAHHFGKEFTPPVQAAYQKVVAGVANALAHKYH
Experimental: (§3) Uptake of zinc from complexes by haemoglobin (1) A 5% suspension of human erythrocytes in aqueous sodium chloride (b 130 mM) buffered to pH 7.4 by 20 mM Tris hydrochloride (2 ml) was incubated for 1 hour at 37° C. with the 2:1 zinc(II) complex in the presence of an excess of the ligand-forming compound. The complex was formed in situ in the buffer using ^65 Zn labelled ZnSO4 at a concentration selected over a range from 1×10^-6 to 4×10^-3 M compound at ten times this concentration and a small amount of Tris free base (to about 2 mM) added to the medium to avoid an acid pH on reaction of the ZnSO4 and the compound to form the complex. Following the period of incubation, an aliquot of the erythrocyte/medium mixture was placed above a layer of silicone oil and the erythrocytes separated by […] centrifugation through the oil. The ^65 Zn levels associated with the erythrocytes and the incubation medium were then counted and the distribution ratio (concentration in erythrocytes/concentration in medium) calculated. The average distribution ratios of zinc obtained in a series of experiments for the homogeneous 2:1 complex from the ligand-providing compounds 3-hydroxy-2methyl-4-pyrone, 2-ethyl-3-hydroxy-4-pyrone and 3-hydroxy-2-(1'-methylethyl)-4-pyrone at a concentration of 5 x 10^-4M are shown in Table 1 together with the percentage of the total amount of zinc which is absorbed in the erythrocytes.

Sickle erythrocytes = assay: Oxygen dissociation curve / oxygen affinity, sickle erythrocytes; assay type: cell-based, human
Experimental: as §1, §2

Foetal erythrocytes = assay: Oxygen dissociation curve / oxygen affinity, foetal erythrocytes; assay type: cell-based, human
Experimental: (§4) (1) A 50% suspension of human erythrocytes in pH 7.09 8BisTris/NaCl buffer005M BisTris(bis(2-hydroxyethyl)imino-tris(hydroxymethyl)methane and 0.13M NaCl was incubated for 15 minutes at 37° C. with the 2:1 zinc(II) complex of 2-ethyl-3-hydroxy-4-pyrone in the presence of an excess of the ligand-forming compound, the complex being formed in situ using zinc sulphate and a 10 molar excess of 2-ethyl-3-hydroxy-4-pyrone (to provide the 2:1 complex and an 8 molar excess of the pyrone). The oxygen dissociation curve of the erythrocytes was then determined using the method of Bellingham and Huehns (Nature, -968, 218, 924-926) which involves measuring the change of OD at two wavelengths (570 and 555 nm) after the sequential measured addition of oxygen in a tanometer. The experiment was conducted using normal erythrocytes, 2,3-diphosphoglyceric acid (DPG) depleted erythrocytes, foetal erythocytes and sickle erythrocytes. A 2.5 mM concentration of zinc was employed in each case together with a proportion of erythrocytes such as to provide a 2:1 ratio of zinc:haemoglobin and consequent saturation of the haemoglobin by zinc, except in one experiment where the proportion was varied to provide a ratio varying from 0.5:1 to 2:1. […]

[2] = test system: DPG depleted erythrocytes; assay: Oxygen dissociation curve / oxygen affinity, DPG depleted erythrocytes; assay type: cell-based, human; conditions: 2.5 mM ZnSO4 + 25 mM pyrone, Zn:Hb 2:1; control 15.75
Experimental: as §4

erythrocyte ghosts = assay: Uptake of 65Zn by erythrocyte ghosts lacking haemoglobin; assay type: cell-based, human; conditions: 2.5 mM 65ZnSO4 and 25 mM 2-ethyl-3-hydroxy-4-pyrone
Experimental: as §3, with “The average distribution ratios of zinc obtained in a series of experiments for the homogeneous 2:1 complex from the ligand-providing compounds 3-hydroxy-2methyl-4-pyrone, 2-ethyl-3-hydroxy-4-pyrone and 3-hydroxy-2-(1'-methylethyl)-4-pyrone at a concentration of 5 x 10^-4M are shown in Table 1 together with the percentage of the total amount of zinc which is absorbed in the erythrocytes.” left out

haemoglobin [3] = assay: Donation of zinc to haemoglobin, elution profile of 65Zn label on PD-10 column; assay type: binding
Experimental: There was no evidence of any saturation of the rate of uptake over the concentration range studied so that the complex is not actively transported and, in order to account for the high distribution ratios observed, the zinc must therefore dissociate from the complex and bind to a macromolecule or membrane associated with the erythrocyte. The experiment just described was repeated at a concentration of 2.5 mM ^65 ZnSO4 and 25 mM 2-ethyl-3-hydroxy-4-pyrone using erythrocyte ghosts in which the haemoglobin is lacking rather than whole erythrocytes. […] (2) The ability of the zinc(II) complex of 2-ethyl-3-hydroxy-4-pyrone to donate zinc to haemoglobin was investigated by [j studying the elution profile of the ^65 Zn label when a mixture of haemoglobin and the ^65 Zn-labelled complex (at 1 mM concentration)in NaCI (130 mM) buffered to pH 7.4 by Tris hydrochloride is applied to a PD-10 colum (Sephadex […] gel permeation column - Pharmacia).

Structure (SMILES): CCc1occc(=O)c1O [pyrone, 2-ethyl-3-hydroxy-4-pyrone, reference compound]
- P(O2)50 (Normal erythrocytes; 2.5 mM pyrone alone, Zn:Hb 0:1, control 26): 28 mmHg

Structure (SMILES): O=S(=O)([O-])[O-].[Zn+2] [ZnSO4, zinc sulphate, reference compound]
- P(O2)50 (Normal erythrocytes; 2.5 mM ZnSO4 alone, Zn:Hb 2:1, control 26): 24.5 mmHg

Now from value to compound, other results behind:

- Distribution ratio (concentration in erythrocytes/concentration in medium) (haemoglobin [1]): 550
- Percentage of zinc absorbed (haemoglobin [1]): 98%
Structure (SMILES): CC(C)c1occc(=O)c1[O-].CC(C)c1occc(=O)c1[O-].[Zn+2] [zinc(II) (3-hydroxy-2-(2'-methylethyl)-4-pyrone)2]

- Distribution ratio (concentration in erythrocytes/concentration in medium) (haemoglobin [1]): 8
- Percentage of zinc absorbed (haemoglobin [1]): 54%
Structure (SMILES): Cc1occc(=O)c1[O-].Cc1occc(=O)c1[O-].[Zn+2] [zinc(II) (3-hydroxy-2-methyl--pyrone)2]

- Distribution ratio (concentration in erythrocytes/concentration in medium) (haemoglobin [1]): 300
- Percentage of zinc absorbed (haemoglobin [1]): 96%
Structure (SMILES): CCc1occc(=O)c1[O-].CCc1occc(=O)c1[O-].[Zn+2] [zinc(II) (2-ethyl-3-hydroxy-4-pyrone)2]
- P(O2)50 (Sickle erythrocytes; 2.5 mM ZnSO4 + 25 mM pyrone, Zn:Hb 2:1, control 36): 18.5 mmHg
- shift in the oxygen dissociation curve (in words) (Sickle erythrocytes; 2.5 mM ZnSO4, 25 mM pyrone, 1 hour, FIG. 1b): a significant left shift in the oxygen dissociation curve is produced in both cases but that the difference from the control is more marked for the sickle erythrocytes
- p(O2)50, treated cells (Sickle erythrocytes; 2.5 mM ZnSO4 and 25 mM pyrone, Zn:Hb 2:1, 1 hour (FIG. 1b), control 36.0): 18.5 mm Hg
- p(O2)50 shift (Sickle erythrocytes; 2.5 mM ZnSO4 and 25 mM pyrone, Zn:Hb 2:1, 1 hour, versus control, sickle erythrocytes): 17.5 mm Hg
- oxygen affinity (in words) (Sickle erythrocytes; sickle erythrocytes, 2.5 mM zinc, 15 minutes): increased
- P(O2)50 (Normal erythrocytes; 2.5 mM ZnSO4 + 25 mM pyrone, Zn:Hb 0.5:1, control 30.0): 23.5 mmHg
- P(O2)50 (Normal erythrocytes; 2.5 mM ZnSO4 + 25 mM pyrone, Zn:Hb 1:1, control 30.0): 17.0 mmHg
- P(O2)50 (Normal erythrocytes; 2.5 mM ZnSO4 + 25 mM pyrone, Zn:Hb 1.5:1, control 30.0): 15.0 mmHg
- P(O2)50 (Normal erythrocytes; 2.5 mM ZnSO4 + 25 mM pyrone, Zn:Hb 2:1, control 26): 15.5 mmHg
- P(O2)50 (Normal erythrocytes; 2.5 mM ZnSO4 + 25 mM pyrone, Zn:Hb 2:1, control 27.5): 15 mmHg
- P(O2)50 (Normal erythrocytes; 2.5 mM ZnSO4 + 25 mM pyrone, Zn:Hb 2:1, control 30.0): 15.0 mmHg
- shift in the oxygen dissociation curve (in words) (Normal erythrocytes; 2.5 mM ZnSO4, 25 mM pyrone, 1 hour, FIG. 1a): a significant left shift in the oxygen dissociation curve
- p(O2)50, treated cells (Normal erythrocytes; 2.5 mM ZnSO4 and 25 mM pyrone, Zn:Hb 2:1, 1 hour (FIG. 1a), control 27.5): 15.0 mm Hg
- p(O2)50 shift (Normal erythrocytes; 2.5 mM ZnSO4 and 25 mM pyrone, Zn:Hb 2:1, 1 hour, versus control, normal erythrocytes): 12.5 mm Hg
- dose response of shift in the oxygen dissociation curve (in words) (Normal erythrocytes; ZnSO4 0.1, 1 and 10 mM with ten times pyrone, 1 hour, FIG. 2): dose response effect
- shift in the oxygen dissociation curve (in words) (Normal erythrocytes; complex 0.1 mM, 1 hour, FIG. 2): still a discernible left shift in the oxygen dissociation curve
- oxygen affinity (in words) (Normal erythrocytes; normal erythrocytes, 2.5 mM zinc, 15 minutes): increased
- P(O2)50 (Foetal erythrocytes; 2.5 mM ZnSO4 + 25 mM pyrone, Zn:Hb 0:1 (assumed no uptake by HbF), control 22): 24 mmHg
- oxygen affinity (in words) (Foetal erythrocytes; foetal erythrocytes, 2.5 mM zinc, 15 minutes): not affected
- P(O2)50 [2]: 9.25 mmHg
- uptake of zinc by erythrocyte ghosts (in words) (erythrocyte ghosts): Only a low level of uptake of zinc was observed
- binding of zinc to haemoglobin (in words) (haemoglobin [3]; 1 mM complex, 20-fold molar proportion of ligand:zinc, NaCl 130 mM, pH 7.4): the zinc is found to bind tightly to haemoglobin
- binding of zinc to haemoglobin versus ligand (in words) (haemoglobin [3]; haemoglobin versus 2-ethyl-3-hydroxy-4-pyrone): zinc binds more tightly to haemoglobin than to 2-ethyl-3-hydroxy-4-pyrone
